Source: US9045423B2, “Prophylactic and/or therapeutic agent for anemia comprising tetrahydroquinoline compound as active ingredient” (KOWA COMPANY, LTD., priority 2009, dated 2015)

Legend:
[1] = test system: K562 cells, a human proerythroblast cell line; assay: Hemoglobin production in K562 cells (fluorescence of the porphyrin ring); format: cell-based; conditions: for activity at 6 µM: Homo sapiens, K562, 144 h, 6 μM test compound, 3 + 3 days incubation, non-stimulated state without compound = 100, read-out: amount of hemoglobin, % of control (6 μM); for enhancement of hemoglobin production: drug concentration 20 μM
Method: K562 cells (obtained from ATCC), which is a human proerythroblast cell line, were inoculated at a concentration of 1×10^5 cells/1 mL in each well of a 24-well plate, using complete medium (RPMI-1640 medium containing 10% bovine fetal serum), and 1 μL of a test compound at a 1000-fold concentration was added to each well. Subsequently, the cells were incubated for 3 days in a CO2 incubator (37° C., 5% CO2). The medium was exchanged, and the cells were further incubated for 3 days. The cells were collected and counted. Subsequently, the amount of hemoglobin produced in the cells was determined by adjusting the number of cells to 3×10^5 cells, and measuring the fluorescence of the porphyrin ring. That is, the cells collected by centrifugation were suspended in 500 μL of 2 M oxalic acid, and were heated to boil for 30 minutes. The cells were cooled, and then the fluorescence intensity was measured by using a fluorescence microplate reader (Spectra MAX GeminiEM; Molecular Devices Corp.) ([…]). The amount of hemoglobin in a non-stimulated state where no compound was added was designated as 100-, and the amount of hemoglobin (% of control) produced as induced by each of the compounds was determined.

[2] = test system: HepG2 cells derived from human liver cancer; assay: EPO production in HepG2 cells (EPO ELISA of culture supernatant); format: cell-based; conditions: for activity at 3 µM / activity at 10 µM: Homo sapiens; for activity at 3 µM: HepG2, 3 μM test compound, 48 hrs, 4% oxygen, non-stimulated state without compound = 100%, read-out: amount of EPO production, % of control (3 μM); for activity at 10 µM: HepG2, 48 h, read-out: enhancement of EPO production
Method: HepG2 cells derived from human liver cancer were inoculated in an amount of 5×10^4 cells per well on a 48-well plate, using minimum essential medium (MEM, Sigma-Aldrich Company) containing 10% bovine fetal serum. On the next day, the medium was exchanged with Dulbecco's modified eagle medium (DMEM (Sigma-Aldrich Company)) containing 10% bovine fetal serum without Phenol Red. Then, a test compound dissolved in DMSO was added thereto to obtain a final concentration of 3 μM or 10 μM, and the amount of medium was adjusted to 400 μL per well. The cells were incubated for 48 hrs in a CO2 incubator in which the oxygen concentration was adjusted to 4%, and then the culture supernatant was collected. The EPO concentration in the culture supernatant was immediately measured using an EPO ELISA kit (Roche Diagnostics GmbH). The method was carried out according to the operation manual.
The amount of EPO production in a non-stimulated state where no compounds were added, was designated as 100%, and the amount of EPO production (% of control) induced by each of the compounds was determined.

[3] = final concentration 10 μM, non-stimulated state = 100%

Row | Compound | activity at 6 µM [1] | activity at 3 µM [2] | further results
1 | CC(=O)N1c2ccccc2C(Oc2ccc(NS(C)(=O)=O)cc2)CC1C (centres unmarked) [Compound 143, N-{4-[(1-acetyl-2-methyl-1,2,3,4-tetrahydroquinolin-4-yl)oxy]-phenyl}methanesulfonamide] | 396% | 130% | –
2 | CC(=O)N1c2ccc(C(=O)O)cc2C(Nc2ccc(-c3cnns3)cc2)CC1C (centres unmarked) [Compound 172, 1-Acetyl-2-methyl-4-{[4-(1,2,3-thiadiazol-5-yl)-phenyl]amino}-1,2,3,4-tetrahydroquinoline-6-carboxylic acid] | 168% | 152% | –
3 | COC(=O)CCCCCNC(=O)c1ccc2c(c1)C(Nc1ccc(Cl)cc1)CC(C)N2C(C)=O (centres unmarked) [Compound 158, Methyl 6-{1-acetyl-4-[(4-chloro-phenyl)amino]-2-methyl-1,2,3,4-tetrahydroquin-oline-6-carboxamido}-hexanoate] | 411% | – | activity at 10 µM [2, 3]: 248%
4 | CCOC(=O)c1ccc2c(c1)C(Nc1ccc(-c3cnns3)cc1)CC(C)N2C(C)=O (centres unmarked) [Compound 171, Ethyl 1-Acetyl-2-methyl-4-{[4-(1,2,3-thiadiazol-5-yl)-phenyl]amino}-1,2,3,4-tetrahydroquinoline-6-carboxylate] | 243% | 333% | –
5 | CC(=O)N1c2ccc(C(=O)Nc3ccccc3)cc2C(Nc2ccc(Cl)cc2)CC1C (centres unmarked) [Compound 130, 1-Acetyl-4-[(4-chlorophenyl)-amino]-2-methyl-N-phenyl-1,2,3,4-tetrahydroquinoline-6-carboxamide] | 172% | 133% | –
6 | CC(=O)N1c2ccc(C(=O)O)cc2C(Nc2ccc(C3CCCCC3)cc2)CC1C (centres unmarked) [Compound 145, 1-Acetyl-4-[(4-cyclohexylphenyl)-amino]-2-methyl-1,2,3,4-tetrahydroquinoline-6-carboxylic acid] | 414% | – | activity at 10 µM [2, 3]: 157%
7 | CNC(=O)c1ccc2c(c1)C(Nc1ccc(C3CCOCC3)cc1)CC(C)N2C(C)=O (centres unmarked) [Compound 155, 1-Acetyl-N,2-dimethyl-4-{[4-(tetrahydro-2H-pyran-4-yl)phenyl]amino}-1,2,3,4-tetrahydroquino-line-6-carboxamide] | 387% | – | –
8 | CC(=O)N1c2ccc(N3CCN(S(C)(=O)=O)CC3)cc2C(Nc2ccc(N3CCOCC3)cc2)CC1C (centres unmarked) [Compound 160, 1-Acetyl-2-methyl-6-[4-(methylsulfonyl)piperazin-1-yl]-4-[(4-morpholino-phenyl)amino]-1,2,3,4-tetrahydroquinoline] | 259% | 190% | –
9 | CC(=O)N1c2c(Br)cccc2C(Nc2ccccc2)CC1C (centres unmarked) [Compound 63, 1-Acetyl-8-bromo-4-phenylamino-2-methyl-1,2,3,4-tetrahydroquino-line] | – | – | enhancement of hemoglobin production [1]: 260%
10 | CC(=O)N1c2ccc(C(N)=O)cc2[C@H](Nc2ccc(NS(C)(=O)=O)cc2)C[C@@H]1C (relative stereo) [Compound 102, 1-Acetyl-4-[(4-methanesulfonyl-aminophenyl)amino]-2-methyl-1,2,3,4-tetrahydroquinoline-6-carbox-amide] | – | – | enhancement of hemoglobin production [1]: 115%
11 | COC(=O)CCCc1ccc(NC(=O)c2ccc3c(c2)C(Nc2ccc(Cl)cc2)CC(C)N3C(C)=O)cc1 (centres unmarked) [Compound 150, Methyl 4-{4-{1-Acetyl-4-[(4-chlorophenyl)-amino]-2-methyl-1,2,3,4-tetrahydroquinoline-6-carboxamido}-phenyl}butanoate] | 534% | – | –
12 | CC(=O)N1c2ccc(-c3cnc(C)[nH]3)cc2C(Nc2ccc(Cl)cc2)CC1C (centres unmarked) [Compound 127, 4-{1-Acetyl-4-[(4-chlorophenyl)-amino]-2-methyl-1,2,3,4-tetra-hydroquinolin-6-yl}-2-methyl-1H-imidazole] | – | 96% | activity at 10 µM [2, 3]: 130%
13 | CC(=O)N1c2ccc(N3CCN(C(=O)C(C)C)CC3)cc2C(Nc2ccc(NS(C)(=O)=O)cc2)CC1C (centres unmarked) [Compound 111, 1-Acetyl-6-[(4-isopropylcarbonyl)-piperazino]-4-[(4-methanesulfonyl-aminophenyl)amino]-2-methyl-1,2,3,4-tetrahydroquinoline] | – | – | enhancement of hemoglobin production [1]: 171%
14 | CC(=O)N1c2ccc(C(=O)O)cc2C(Oc2ccc(N3CCOCC3)cc2)CC1C (centres unmarked) [Compound 139, 1-Acetyl-2-methyl-4-(4-morpho-linophenoxy)-1,2,3,4-tetrahydro-quinoline-6-carboxylic acid] | 193% | – | –
15 | CNC(=O)c1ccc2c(c1)C(Nc1cccc(N3CCOCC3)c1)CC(C)N2C(C)=O (centres unmarked) [Compound 180, 1-Acetyl-N,2-dimethyl-4-[(3-morpholinophenyl)amino]-1,2,3,4-tetrahydroquinoline-6-carboxamide] | 150% | – | –
16 | CC(=O)N1c2ccc(N3CC(C)OC(C)C3)cc2C(Nc2ccc(NS(C)(=O)=O)cc2)CC1C (centres unmarked) [Compound 110, 1-Acetyl-6-[(2,6-dimethyl)-morpholino]-4-[(4-methanesulfonylaminophenyl)-amino]-2-methyl-1,2,3,4-tetrahydroquinoline] | – | 207% | –
17 | CC(=O)N1c2ccc(N3CCN(C(C)C)CC3)cc2C(Nc2ccc(N3CCOCC3)cc2)CC1C (centres unmarked) [Compound 159, 1-Acetyl-6-(4-isopropylpiperazin-1-yl)-2-methyl-4-[(4-morpholinophenyl)-amino]-1,2,3,4-tetrahydroquinoline] | – | 292% | –
18 | CC(=O)N1c2ccccc2[C@H](OCc2ccccc2)C[C@@H]1C (relative stereo) [Compound 36, 1-Acetyl-2-methyl-4-benzyloxy-1,2,3,4-tetrahydroquinoline] | – | – | enhancement of hemoglobin production [1]: 143%
19 | CNC(=O)c1ccc2c(c1)C(Nc1ccc(-c3ncco3)cc1)CC(C)N2C(C)=O (centres unmarked) [Compound 170, 1-Acetyl-N,2-dimethyl-4-{[4-(oxazol-2-yl)phenyl]-amino}-1,2,3,4-tetrahydroquinoline-6-carboxamide] | – | 128% | –
20 | CC(=O)N1c2ccc(C(=O)NCCOCCOCCOCCC(=O)OC(C)(C)C)cc2C(Nc2ccc(Cl)cc2)CC1C (centres unmarked) [Compound 148, Tert-butyl 12-{1-Acetyl-4-[(4-chlorophenyl)-amino]-2-methyl-1,2,3,4-tetrahydroquinoline-6-carboxamido}-4,7,10-trioxadodecanoate] | 506% | – | –
21 | CCOC(=O)c1ccc2c(c1)C(Nc1ccc(C3CCOCC3)cc1)CC(C)N2C(C)=O (centres unmarked) [Compound 153, Ethyl 1-acetyl-2-methyl-4-{[4-(tetrahydro-2H-pyran-4-yl)-phenyl]amino}-1,2,3,4-tetrahydroquinoline-6-carboxylate] | 294% | – | –
22 | CC(=O)N1c2ccc(C(N)=O)cc2C(Nc2ccc(C3CCOCC3)cc2)CC1C (centres unmarked) [Compound 156, 1-Acetyl-2-methyl-4-{[4-(tetrahydro-2H-pyran-4-yl)phenyl]amino}-1,2,3,4-tetrahydroquinoline-6-carboxamide] | 371% | – | –
23 | CC(=O)N1c2ccc(NS(C)(=O)=O)cc2C(Nc2ccc(N3CCOCC3)cc2)CC1C (centres unmarked) [Compound 98, 1-Acetyl-6-methanesulfonylamino-2-methyl-4-[(4-morpholinophenyl)-amino]-1,2,3,4-tetrahydroquin-oline] | – | – | enhancement of hemoglobin production [1]: 142%
24 | CC(=O)N1c2ccc(C(=O)O)cc2C(Oc2ccc(Cl)cc2)CC1C (centres unmarked) [Compound 141, 1-Acetyl-4-(4-chlorophenoxy)-2-methyl-1,2,3,4-tetrahydro-quinoline-6-carboxylic acid] | 209% | – | –
25 | CC(=O)N1c2c(F)cccc2[C@H](Nc2ccccc2F)C[C@@H]1C (relative stereo) [Compound 4, 1-Acetyl-8-fluoro-4-[(2-fluoro-phenyl)amino]-2-methyl-1,2,3,4-tetrahydroquinoline] | – | – | enhancement of hemoglobin production [1]: 162%
26 | CCOC(=O)Cc1ccc(NC2CC(C)N(C(C)=O)c3ccc(NS(C)(=O)=O)cc32)cc1 (centres unmarked) [Compound 99, 1-Acetyl-6-methanesulfonylamino-2-methyl-4-[(4-ethoxycarbonyl-methylphenyl)amino]-1,2,3,4-tetra-hydroquinoline] | – | – | enhancement of hemoglobin production [1]: 306%
27 | CC(=O)N1c2ccc(C(=O)O)cc2C(Nc2ccc(Cl)cc2)CC1C (centres unmarked) [Compound 42, 1-Acetyl-4-[(4-chlorophenyl)-amino]-2-methyl-1,2,3,4-tetrahydro-quinoline-6-carboxylic acid] | – | – | enhancement of EPO production [2, 3]: 138%
